Inconclusive results and toxic doses are left out. Cut-off read from the data, not from the text of the source: active = T/C of 150% or more; inactive = T/C below 125%.
Test system: L1210 leukemia ip in BDF1 mice, survival T/C
Assay: NCI In Vivo Anticancer Drug Screen. Data for tumor model L1210 Leukemia (intraperitoneal) in B6D2F1 (BDF1) mice
Conditions: endpoint: mean survival time, higher = longer survival
Summary of the method: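 Value reflects the ratio of survival in compound-treated mice to survival in vehicle-treated controls, with both groups carrying the same transplanted tumor.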

[1] = dose: 100.0 mg/kg/injection, schedule: Q01DX001 (ip), vehicle: saline
[2] = dose: 200.0 mg/kg/injection, schedule: Q01DX001 (ip), vehicle: saline
[3] = dose: 400.0 mg/kg/injection, schedule: Q01DX001 (ip), vehicle: saline
[4] = dose: 100.0 mg/kg/injection, schedule: Q04DX003 (ip), vehicle: saline with Tween-80
[5] = dose: 200.0 mg/kg/injection, schedule: Q04DX003 (ip), vehicle: saline with Tween-80
[6] = dose: 400.0 mg/kg/injection, schedule: Q04DX003 (ip), vehicle: saline with Tween-80
[7] = dose: 50.0 mg/kg/injection, schedule: Q01DX009 (ip), vehicle: Klucel (hydroxypropylcellulose) (HPC)
[8] = dose: 100.0 mg/kg/injection, schedule: Q01DX009 (ip), vehicle: Klucel (hydroxypropylcellulose) (HPC)
[9] = dose: 200.0 mg/kg/injection, schedule: Q01DX009 (ip), vehicle: Klucel (hydroxypropylcellulose) (HPC)
[10] = dose: 50.0 mg/kg/injection, schedule: Q01DX001 (ip), vehicle: saline

Measured: T/C

NC(N)=NO
inactive: dose: 9.37 mg/kg/injection, schedule: Q01DX009 (ip), vehicle: saline 107 % of control | dose: 18.75 mg/kg/injection, schedule: Q01DX009 (ip), vehicle: saline 107 % of control | dose: 37.5 mg/kg/injection, schedule: Q01DX009 (ip), vehicle: saline 109 % of control | dose: 75.0 mg/kg/injection, schedule: Q01DX009 (ip), vehicle: saline 111 % of control | dose: 100.0 mg/kg/injection, schedule: Q01DX Z (ip), vehicle: saline 115 % of control | dose: 144.0 mg/kg/injection, schedule: Q03HX024 (ip), vehicle: saline 123 % of control | dose: 150.0 mg/kg/injection, schedule: Q01DX Z (ip), vehicle: other 112 % of control | dose: 217.0 mg/kg/injection, schedule: Q03HX024 (ip), vehicle: saline 117 % of control | dose: 300.0 mg/kg/injection, schedule: Q01DX Z (ip), vehicle: other 121 % of control | dose: 300.0 mg/kg/injection, schedule: Q01DX Z (ip), vehicle: saline 122 % of control | dose: 325.0 mg/kg/injection, schedule: Q03HX024 (ip), vehicle: saline 122 % of control | dose: 400.0 mg/kg/injection, schedule: Q04DX003 (ip), vehicle: saline 104 % of control | dose: 487.0 mg/kg/injection, schedule: Q03HX024 (ip), vehicle: saline 113 % of control | dose: 600.0 mg/kg/injection, schedule: Q04DX003 (ip), vehicle: saline 91 % of control

CCOC(=O)C(CO)(CO)C(=O)OCC
inactive: dose: 100.0 mg/kg/injection, schedule: Q01DX009 (ip), vehicle: saline 106 % of control | dose: 200.0 mg/kg/injection, schedule: Q01DX009 (ip), vehicle: saline 92 % of control | dose: 400.0 mg/kg/injection, schedule: Q01DX009 (ip), vehicle: saline 100 % of control

CC(=O)OC1COC(n2cnc3c(N4CCCCC4)nc(Cl)nc32)C(OC(C)=O)C1OC(C)=O (stereo unspecified)
inactive: [1] 102 % of control | [2] 96 % of control | [3] 102 % of control

Cn1cc(C(=Nc2ccccc2)Nc2ccccc2)c2ccccc21
inactive: dose: 75.0 mg/kg/injection, schedule: Q01DX001 (ip), vehicle: saline 94 % of control | dose: 150.0 mg/kg/injection, schedule: Q01DX001 (ip), vehicle: saline 94 % of control | dose: 300.0 mg/kg/injection, schedule: Q01DX001 (ip), vehicle: saline 89 % of control

C[N+](C)(CC(=O)Nc1ccc(Cl)c(Cl)c1)CC(=O)c1ccc(Cl)c(Cl)c1
inactive: [4] 100 % of control | [5] 100 % of control | [6] 102 % of control

CNc1ccc(Cl)cc1-c1nc2ccccc2[nH]1
inactive: [7] 109 % of control | [8] 102 % of control | [9] 102 % of control

Cc1c(-c2ccccc2)n(O)[n+]([O-])c1-c1ccccc1
inactive: [7] 98 % of control | [8] 94 % of control | [9] 94 % of control

CCCCCCCCCCCCP(=O)(O)O
inactive: dose: 75.0 mg/kg/injection, schedule: Q01DX001 (ip), vehicle: other 94 % of control | dose: 150.0 mg/kg/injection, schedule: Q01DX001 (ip), vehicle: other 97 % of control

Cc1nc(Cl)cc(Cl)n1
inactive: dose: 100.0 mg/kg/injection, schedule: Q04DX003 (ip), vehicle: Klucel (hydroxypropylcellulose) (HPC) 90 % of control | dose: 200.0 mg/kg/injection, schedule: Q04DX003 (ip), vehicle: Klucel (hydroxypropylcellulose) (HPC) 90 % of control | dose: 400.0 mg/kg/injection, schedule: Q04DX003 (ip), vehicle: Klucel (hydroxypropylcellulose) (HPC) 97 % of control

ClC1=C(Cl)[C@@]2(Cl)[C@H]3[C@H]4C[C@H]([C@@H]5O[C@H]45)[C@H]3[C@@]1(Cl)C2(Cl)Cl
inactive: dose: 1.0 mg/kg/injection, schedule: Q01DX009 (ip), vehicle: acetone 102 % of control | dose: 2.0 mg/kg/injection, schedule: Q01DX009 (ip), vehicle: acetone 93 % of control | dose: 4.0 mg/kg/injection, schedule: Q01DX009 (ip), vehicle: acetone 96 % of control | dose: 8.0 mg/kg/injection, schedule: Q01DX009 (ip), vehicle: acetone 86 % of control | dose: 25.0 mg/kg/injection, schedule: Q01DX001 (ip), vehicle: acetone 102 % of control

C=CC/C=C/C
inactive: dose: 100.0 mg/kg/injection, schedule: Q01DX001 (ip), vehicle: Klucel (hydroxypropylcellulose) (HPC) 93 % of control | dose: 200.0 mg/kg/injection, schedule: Q01DX001 (ip), vehicle: Klucel (hydroxypropylcellulose) (HPC) 109 % of control | dose: 400.0 mg/kg/injection, schedule: Q01DX001 (ip), vehicle: Klucel (hydroxypropylcellulose) (HPC) 100 % of control

O=[N+]([O-])c1c(Cl)cccc1-c1c[nH]cc1Cl
inactive: dose: 100.0 mg/kg/injection, schedule: Q01DX001 (ip), vehicle: other 92 % of control | dose: 200.0 mg/kg/injection, schedule: Q01DX001 (ip), vehicle: other 90 % of control | dose: 400.0 mg/kg/injection, schedule: Q01DX001 (ip), vehicle: other 97 % of control

CN1/C(=C/C=N/NC(N)=S)C(C)(C)c2ccccc21
inactive: dose: 100.0 mg/kg/injection, schedule: Q01DX001 (ip), vehicle: carboxymethylcellulose (CMC) 102 % of control | dose: 200.0 mg/kg/injection, schedule: Q01DX001 (ip), vehicle: carboxymethylcellulose (CMC) 98 % of control | dose: 400.0 mg/kg/injection, schedule: Q01DX001 (ip), vehicle: carboxymethylcellulose (CMC) 98 % of control

O=C(O)C1C2CCCCCCC21 (stereo unspecified)
inactive: [7] 108 % of control | dose: 100.0 mg/kg/injection, schedule: Q01DX005 (ip), vehicle: Klucel (hydroxypropylcellulose) (HPC) 95 % of control | [8] 108 % of control | dose: 200.0 mg/kg/injection, schedule: Q01DX005 (ip), vehicle: Klucel (hydroxypropylcellulose) (HPC) 103 % of control | [9] 97 % of control

CCCCc1ccc2nc3cc4ccccc4cc3nc2c1
inactive: [10] 95 % of control | [1] 98 % of control | [2] 93 % of control | [3] 110 % of control

O=C1NC(C2CC3C=CC2C3)Nc2ccccc21 (stereo unspecified)
inactive: dose: 12.5 mg/kg/injection, schedule: Q01DX009 (ip), vehicle: Klucel (hydroxypropylcellulose) (HPC) 100 % of control | dose: 12.5 mg/kg/injection, schedule: Q04DX003 (ip), vehicle: Klucel (hydroxypropylcellulose) (HPC) 111 % of control | dose: 25.0 mg/kg/injection, schedule: Q01DX009 (ip), vehicle: Klucel (hydroxypropylcellulose) (HPC) 101 % of control | dose: 25.0 mg/kg/injection, schedule: Q04DX003 (ip), vehicle: Klucel (hydroxypropylcellulose) (HPC) 103 % of control | [7] 96 % of control | dose: 50.0 mg/kg/injection, schedule: Q04DX003 (ip), vehicle: Klucel (hydroxypropylcellulose) (HPC) 103 % of control

CC(C)C(=O)Nc1cccc(OC(=O)NC(C)(C)C)c1
inactive: dose: 200.0 mg/kg/injection, schedule: Q01DX001 (ip), vehicle: saline with Tween-80 89 % of control | dose: 400.0 mg/kg/injection, schedule: Q01DX001 (ip), vehicle: saline with Tween-80 87 % of control

C/C(=C\c1ccccc1)c1ccccc1
inactive: [10] 91 % of control | [1] 97 % of control | [2] 95 % of control | [3] 101 % of control

CC(=O)N=c1cc(-c2ccc(Cl)cc2)ss1
inactive: [4] 90 % of control | [5] 95 % of control | [6] 98 % of control

CC1(C)C(=O)C=C(c2ccccc2)C1(O)c1ccccc1 (stereo unspecified)
inactive: [4] 99 % of control | [5] 96 % of control | [6] 96 % of control

O=C(O)Cc1c(-c2ccccn2)[nH]c2ccccc12
inactive: dose: 75.0 mg/kg/injection, schedule: Q01DX001 (ip), vehicle: acetone 103 % of control | dose: 150.0 mg/kg/injection, schedule: Q01DX001 (ip), vehicle: acetone 102 % of control | dose: 300.0 mg/kg/injection, schedule: Q01DX001 (ip), vehicle: acetone 94 % of control

Reference: PubChem BioAssay AID248 (DTP/NCI, 2004)
